Where “and” joins values, the source holds several entries; their conditions need not be identical. Equal entries are not always repeated. One block for each molecule: values may come before it.
System: NCI-H196 complex spheroid growth, percent test/control
Test: Anticancer human tumor NCI-H196 cell line growth inhibition [AhR];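 also: seven days of drug exposure starting three days after plating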;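 as to viability, T/C: 100% = DMSO vehicle control wells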
Conditions: for viability, T/C: stronger effect = lower value
Outline: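 Agents were dosed in half-log steps down from roughly clinical Cmax, or from 10 microM where Cmax was unknown, alone and with AhR antagonists. Read-out: percent test/control growth of tumor spheroids containing HUVEC and MSC stromal cells.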

[1] = curve of first compound, second compound 0.1 µM
[2] = curve of first compound, second compound 0.316 µM
[3] = curve of first compound, second compound 1 µM
[4] = curve of first compound, second compound 3.16 µM
[5] = curve of first compound, second compound 10 µM
[6] = second compound 0.1 µM, first compound 0.0316 µM
[7] = second compound 0.1 µM, first compound 0.1 µM
[8] = second compound 0.1 µM, first compound 0.316 µM
[9] = second compound 0.1 µM, first compound 1 µM
[10] = second compound 0.316 µM, first compound 0.0316 µM
[11] = second compound 0.316 µM, first compound 0.1 µM
[12] = second compound 0.316 µM, first compound 0.316 µM
[13] = second compound 0.316 µM, first compound 1 µM
[14] = second compound 1 µM, first compound 0.0316 µM
[15] = second compound 1 µM, first compound 0.1 µM
[16] = second compound 1 µM, first compound 0.316 µM
[17] = second compound 1 µM, first compound 1 µM
[18] = second compound 3.16 µM, first compound 0.0316 µM
[19] = second compound 3.16 µM, first compound 0.1 µM
[20] = second compound 3.16 µM, first compound 0.316 µM
[21] = second compound 3.16 µM, first compound 1 µM
[22] = second compound 10 µM, first compound 0.0316 µM
[23] = second compound 10 µM, first compound 0.1 µM
[24] = second compound 10 µM, first compound 0.316 µM
[25] = second compound 10 µM, first compound 1 µM
[26] = second compound 0.1 µM, first compound 0.00316 µM
[27] = second compound 0.1 µM, first compound 0.01 µM
[28] = second compound 0.316 µM, first compound 0.00316 µM
[29] = second compound 0.316 µM, first compound 0.01 µM
[30] = second compound 1 µM, first compound 0.00316 µM
[31] = second compound 1 µM, first compound 0.01 µM
[32] = second compound 3.16 µM, first compound 0.00316 µM
[33] = second compound 3.16 µM, first compound 0.01 µM
[34] = second compound 10 µM, first compound 0.00316 µM
[35] = second compound 10 µM, first compound 0.01 µM

IC50 [1]: 0.509 µM | IC50 [2]: 0.519 µM | IC50 [3]: 0.523 µM | IC50 [4]: 0.596 µM | IC50 [5]: 0.593 µM
Structure (SMILES): Nc1ccccc1NC(=O)c1ccc(CNC(=O)OCc2cccnc2)cc1 + CC(CO)NC(=O)c1cc(-c2ccc(Cl)cc2)nn(-c2cnn(C)c2)c1=O
viability, T/C [6]: 80.5% | viability, T/C [7]: 81.1% | viability, T/C [8]: 62.6% | viability, T/C [9]: 29.9% | viability, T/C (second compound 0.1 µM, first compound 3.16 µM): 15.4% | viability, T/C (second compound 0.1 µM, first compound 10 µM): 0.46% | viability, T/C [10]: 87.5% | viability, T/C [11]: 81.5% | viability, T/C [12]: 61.6% | viability, T/C [13]: 33.7% | viability, T/C (second compound 0.316 µM, first compound 3.16 µM): 12.8% | viability, T/C (second compound 0.316 µM, first compound 10 µM): 0.5% | viability, T/C [14]: 87.9% | viability, T/C [15]: 79.3% | viability, T/C [16]: 63.2% | viability, T/C [17]: 32.9% | viability, T/C (second compound 1 µM, first compound 3.16 µM): 14.5% | viability, T/C (second compound 1 µM, first compound 10 µM): 0.63% | viability, T/C [18]: 85.6% | viability, T/C [19]: 89.4% | viability, T/C [20]: 65.3% | viability, T/C [21]: 34.7% | viability, T/C (second compound 3.16 µM, first compound 3.16 µM): 15.3% | viability, T/C (second compound 3.16 µM, first compound 10 µM): 0.42% | viability, T/C [22]: 91.7% | viability, T/C [23]: 87.5% | viability, T/C [24]: 74.1% | viability, T/C [25]: 29.2% | viability, T/C (second compound 10 µM, first compound 3.16 µM): 12.9% | viability, T/C (second compound 10 µM, first compound 10 µM): 0.86%

IC50 (curve of compound): 0.792 µM and 0.736 µM and 1.2 µM
Structure (SMILES): COc1cccc2c1C(=O)c1c(O)c3c(c(O)c1C2=O)CC(O)(C(=O)CO)CC3OC1CC(N)C(O)C(C)O1 (centres undefined)
viability, T/C (compound 0.0316 µM): 95.5% and 104% and 102% | viability, T/C (compound 0.1 µM): 97.6% and 102% and 108% | viability, T/C (compound 0.316 µM): 82.6% and 76.4% and 99.2% | viability, T/C (compound 1 µM): 42.9% and 44.2% and 59% | viability, T/C (compound 3.16 µM): 0.87% and 1.36% and 2.64% | viability, T/C (compound 10 µM): 1.12% and 5.21% and 1.87%

IC50 [1]: > 0.1 µM | IC50 [2]: > 0.1 µM | IC50 [3]: > 0.1 µM | IC50 [4]: > 0.1 µM | IC50 [5]: > 0.1 µM
Structure (SMILES): CC[C@@]1(O)C(=O)OCc2c1cc1n(c2=O)Cc2cc3c(CN(C)C)c(O)ccc3nc2-1 + Cc1ccccc1N=Nc1ccc(NC(=O)c2ccnn2C)c(C)c1
viability, T/C (second compound 0.1 µM, first compound 0.000316 µM): 92.3% | viability, T/C (second compound 0.1 µM, first compound 0.001 µM): 111% | viability, T/C [26]: 93.5% | viability, T/C [27]: 88.8% | viability, T/C [6]: 112% | viability, T/C [7]: 102% | viability, T/C (second compound 0.316 µM, first compound 0.000316 µM): 105% | viability, T/C (second compound 0.316 µM, first compound 0.001 µM): 103% | viability, T/C [28]: 98.6% | viability, T/C [29]: 90.8% | viability, T/C [10]: 93.6% | viability, T/C [11]: 96.9% | viability, T/C (second compound 1 µM, first compound 0.000316 µM): 101% | viability, T/C (second compound 1 µM, first compound 0.001 µM): 112% | viability, T/C [30]: 98.3% | viability, T/C [31]: 98.4% | viability, T/C [14]: 99.7% | viability, T/C [15]: 93.5% | viability, T/C (second compound 3.16 µM, first compound 0.000316 µM): 97.2% | viability, T/C (second compound 3.16 µM, first compound 0.001 µM): 101% | viability, T/C [32]: 109% | viability, T/C [33]: 86.5% | viability, T/C [18]: 91.1% | viability, T/C [19]: 103% | viability, T/C (second compound 10 µM, first compound 0.000316 µM): 95% | viability, T/C (second compound 10 µM, first compound 0.001 µM): 97.7% | viability, T/C [34]: 89% | viability, T/C [35]: 98.3% | viability, T/C [22]: 102% | viability, T/C [23]: 97%

IC50 [1]: 0.0144 µM | IC50 [2]: 0.0156 µM | IC50 [3]: 0.0158 µM | IC50 [4]: 0.0159 µM | IC50 [5]: 0.0168 µM
Structure (SMILES): CC(C)CC(NC(=O)C(Cc1ccccc1)NC(=O)c1cnccn1)B(O)O (centres undefined) + Cc1ccccc1N=Nc1ccc(NC(=O)c2ccnn2C)c(C)c1
viability, T/C (second compound 0.1 µM, first compound 0.000949 µM): 97.6% | viability, T/C (second compound 0.1 µM, first compound 0.003 µM): 101% | viability, T/C (second compound 0.1 µM, first compound 0.00949 µM): 74.9% | viability, T/C (second compound 0.1 µM, first compound 0.03 µM): 6.41% | viability, T/C (second compound 0.1 µM, first compound 0.0949 µM): 4.21% | viability, T/C (second compound 0.1 µM, first compound 0.3 µM): 5.04% | viability, T/C (second compound 0.316 µM, first compound 0.000949 µM): 93.6% | viability, T/C (second compound 0.316 µM, first compound 0.003 µM): 96.4% | viability, T/C (second compound 0.316 µM, first compound 0.00949 µM): 83.1% | viability, T/C (second compound 0.316 µM, first compound 0.03 µM): 6.9% | viability, T/C (second compound 0.316 µM, first compound 0.0949 µM): 4.16% | viability, T/C (second compound 0.316 µM, first compound 0.3 µM): 3.98% | viability, T/C (second compound 1 µM, first compound 0.000949 µM): 90.8% | viability, T/C (second compound 1 µM, first compound 0.003 µM): 101% | viability, T/C (second compound 1 µM, first compound 0.00949 µM): 83% | viability, T/C (second compound 1 µM, first compound 0.03 µM): 8.93% | viability, T/C (second compound 1 µM, first compound 0.0949 µM): 4.78% | viability, T/C (second compound 1 µM, first compound 0.3 µM): 6.96% | viability, T/C (second compound 3.16 µM, first compound 0.000949 µM): 97.4% | viability, T/C (second compound 3.16 µM, first compound 0.003 µM): 95.8% | viability, T/C (second compound 3.16 µM, first compound 0.00949 µM): 83.8% | viability, T/C (second compound 3.16 µM, first compound 0.03 µM): 8.44% | viability, T/C (second compound 3.16 µM, first compound 0.0949 µM): 3.34% | viability, T/C (second compound 3.16 µM, first compound 0.3 µM): 3.4% | viability, T/C (second compound 10 µM, first compound 0.000949 µM): 89.2% | viability, T/C (second compound 10 µM, first compound 0.003 µM): 90.5% | viability, T/C (second compound 10 µM, first compound 0.00949 µM): 85.1% | viability, T/C (second compound 10 µM, first compound 0.03 µM): 14.6% | viability, T/C (second compound 10 µM, first compound 0.0949 µM): 8.98% | viability, T/C (second compound 10 µM, first compound 0.3 µM): 5.84%

IC50 [1]: > 1 µM | IC50 [2]: > 1 µM | IC50 [3]: > 1 µM | IC50 [4]: > 1 µM | IC50 [5]: > 1 µM
Structure (SMILES): Nc1ncn(C2CC(O)C(CO)O2)c(=O)n1 (centres undefined) + Cc1cncc(-c2nc(NCCc3c[nH]c4ccccc34)c3ncn(C(C)C)c3n2)c1
viability, T/C [26]: 110% | viability, T/C [27]: 105% | viability, T/C [6]: 104% | viability, T/C [7]: 97.9% | viability, T/C [8]: 107% | viability, T/C [9]: 99.8% | viability, T/C [28]: 106% | viability, T/C [29]: 98.5% | viability, T/C [10]: 114% | viability, T/C [11]: 104% | viability, T/C [12]: 105% | viability, T/C [13]: 105% | viability, T/C [30]: 122% | viability, T/C [31]: 106% | viability, T/C [14]: 115% | viability, T/C [15]: 96.3% | viability, T/C [16]: 117% | viability, T/C [17]: 103% | viability, T/C [32]: 102% | viability, T/C [33]: 112% | viability, T/C [18]: 109% | viability, T/C [19]: 111% | viability, T/C [20]: 108% | viability, T/C [21]: 109% | viability, T/C [34]: 96.2% | viability, T/C [35]: 86.9% | viability, T/C [22]: 104% | viability, T/C [23]: 89.6% | viability, T/C [24]: 87.8% | viability, T/C [25]: 86.1%

IC50 (curve of compound): > 3 µM
Structure (SMILES): CCN(c1cc(-c2ccc(CN3CCOCC3)cc2)cc(C(=O)NCc2c(C)cc(C)[nH]c2=O)c1C)C1CCOCC1
viability, T/C (compound 0.00949 µM): 98.5% and 117% and 104% | viability, T/C (compound 0.03 µM): 103% and 99.6% and 104% | viability, T/C (compound 0.0949 µM): 92.1% and 98.2% and 99.4% | viability, T/C (compound 0.3 µM): 111% and 101% and 107% | viability, T/C (compound 0.949 µM): 110% (2×) and 106% | viability, T/C (compound 3 µM): 104% and 94.1% and 107%
